In US12303474B2, “S-enantiomerically enriched compositions of beta blockers for treating amyotrophic lateral sclerosis” (priority 2013, dated 2025):
“Also recorded” adds a separate entry of the source. Read-outs that look alike come from different tables or passages of the source. Marks after values point to notes of the source that are not given here.

How the values were obtained:
[1] = tested on: G93A SOD1 B6SJL hybrid (G93A) model;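 for HR (hazard ratio) survival vs placebo, FIG. 2: dosing began after ALS onset in G93A SOD1 mice, with survival as the endpoint, defined humanely as the animal failing to regain upright posture within 30 s when placed sideways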;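 for percent survival, comparison in words (FIGS. 2-4): dosing began after ALS onset in G93A SOD1 mice, with survival as the endpoint, defined humanely as the animal failing to regain upright posture within 30 s when placed sideways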
Text: To study the effect of S-oxprenolol on survival, survival was monitored over time.

[2] = tested on: G93A SOD1 B6SJL hybrid (G93A) model; experiment: Disease progression score (JAX SOP) in G93A SOD1 transgenic mice
Text: The disease progression score is based on the JAX SOP (Ludolph A C, Bendotti C, Blaugrund E, Hengerer B, Loffler J P, Martin J, Meininger V, Meyer T, Moussaoui S, Robberecht W, Scott S, Silani V, Van Den Berg L H (ENMC Group For The Establishment Of Guidelines For The Conduct Of Preclinical And Proof Of Concept Studies In ALS/MND Models). 2007, which is incorporated by reference).

[3] = tested on: G93A SOD1 B6SJL hybrid (G93A) model; experiment: Body weight and body composition (lean mass, fat mass; NMR scans) in G93A SOD1 transgenic mice; type: in vivo; details: for Average Δ body weight / Average Δ fat mass / Average Δ lean mass: per day alive after disease onset
Text: (§1) Transgenic mice over-expressing a high copy number (25 copies) of mutated human SOD1 gene with a G93A point mutation, i.e., B6SJL-TgN [SOD1-G93A]1 Gur (G1H-G93A transgenic mice, JR2726; Hemizygote) (Gurney M E, et al., Science, 264, 1772-1775, 1994) (“G93A SOD1 B6SJL hybrid (G93A) model”), were used.
[…] […] There were 16 mice in the S-oxprenolol group.
The primary endpoint was survival, humanely defined as the ability of the animal to right itself in 30 seconds after being laid on its side. Secondary endpoints were body weight, body composition, spontaneous activity and food intake. Body weight of the animals was assessed weekly until onset of disease. Additionally, body composition (fat mass and lean body mass) was assessed using NMR scans (EchoMRI-100, Echo Medical Systems, Houston, USA) every 4 days. After onset of disease, body weight and body composition were assessed every two days until the end of the study. All personal handling the animals was strictly blinded to the randomized treatment allocation.
To study the effect of S-oxprenolol on body weight, body weight was monitored over time.
To study the effect of the test compounds on lean body mass, lean mass was determined at the end of the study.
To study the effect of the test compounds on fat mass, the fat mass were determined at the end of the study.
To study the effect of S-oxprenolol on body weight, body weight was monitored over time. […] The number of all mice in the population is indicated as “n” in at the bottom of FIGS. 20A-20C.
To study the effect of the test compounds on lean body mass, lean mass was determined at the end of the study. […] The number of all mice in the population is indicated as “n” in at the bottom of FIGS. 20D-20F.
To study the effect of the test compounds on fat mass, the fat mass were determined at the end of the study. […] The number of all mice in the population is indicated as “n” in at the bottom of FIGS. 20G-20I.

[4] = tested on: G93A SOD1 B6SJL hybrid (G93A) model; details: for Heart / gastrocnemius: end of study;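 for HR (hazard ratio) survival vs placebo, FIG. 2: dosing began after ALS onset in G93A SOD1 mice, with survival as the endpoint, defined humanely as the animal failing to regain upright posture within 30 s when placed sideways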;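 for percent survival, comparison in words (FIGS. 2-4): dosing began after ALS onset in G93A SOD1 mice, with survival as the endpoint, defined humanely as the animal failing to regain upright posture within 30 s when placed sideways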
Experimental: as §1
To study the effect of the test compounds on skeletal muscle atrophy, the skeletal muscle mass were determined at the end of the study.
The number of all mice in the population is indicated as “n” in at the bottom of FIGS. 21A-21C.
The number of all mice in the population is indicated as “n” in at the bottom of FIGS. 20D-20F.
The number of all mice in the population is indicated as “n” in at the bottom of FIGS. 21G-21I.

[5] = 20 mg/kg/day vs. S-Oxprenolol (20)
[6] = 10 mg/kg/day, S-pindolol 3 mg/kg/day

## C=CCOc1ccccc1OC[C@@H](O)CNC(C)C [S-oxprenolol, (S)-1-(2-(allyloxy)phenoxy)-3-(isopropylamino)propan-2-ol]
[1]; 10 mg/kg/day
  percent survival, comparison in words (FIGS. 2-4): longer survival than those in the placebo group; also recorded: significantly superior to either placebo or S-pindolol at its preferred dose; also recorded: significantly superior to either placebo or the other compounds
[1]; 10 mg/kg/day, 95% CI: 0.171-0.88, p=0.0241
  HR (hazard ratio) survival vs placebo, FIG. 2: 0.39
[1]; 10 mg/kg/day, 95% CI: 0.83-1.81
  Median survival ratio vs placebo: 1.32
[1]; 10 mg/kg/day, placebo 28 days
  Median survival after onset of ALS symptoms: 37 days
[1]; 10 mg/kg/day, placebo 42 days
  survival, days after onset: 56 days
[1]; G93A mice, 10 mg/kg/day after onset of ALS
  survival improved compared to placebo treated mice: about 33%
[1]; all mice, 20 mg/kg/day
  percent survival, comparison in words (FIG. 14): longer survival than other groups
[1]; all mice, 10 mg/kg/day vs. placebo
  HR survival (FIG. 14): 0.71
[1]; all mice, 20 mg/kg/day vs. placebo
  HR survival (FIG. 14): 0.45
[1]; female mice, 20 mg/kg/day
  percent survival, comparison in words (FIG. 16): longer survival than other groups
[1]; female mice, 10 mg/kg/day vs. placebo
  HR survival (FIG. 16): 0.96
[1]; female mice, 20 mg/kg/day vs. placebo
  HR survival (FIG. 16): 0.53
[1]; male mice, 20 mg/kg/day
  percent survival, comparison in words (FIG. 15): longer survival than other groups
[1]; male mice, 10 mg/kg/day vs. placebo
  HR survival (FIG. 15): 0.46
[1]; male mice, 20 mg/kg/day vs. placebo
  HR survival (FIG. 15): 0.39
[2]; 10 mg/kg/day vs. placebo
  HR Progression from score 1 to score 2 (FIG. 17): 0.56
  HR Progression from score 1 to score 3 (FIG. 19): 0.73
  HR Progression from score 2 to score 3 (FIG. 18): 1.07
[2]; [5]
  HR Progression from score 1 to score 2 (FIG. 17): 1.17
  HR Progression from score 1 to score 3 (FIG. 19): 1.48
  HR Progression from score 2 to score 3 (FIG. 18): 1.20
[2]; 20 mg/kg/day vs. placebo
  HR Progression from score 1 to score 2 (FIG. 17): 0.51
  HR Progression from score 1 to score 3 (FIG. 19): 0.47
  HR Progression from score 2 to score 3 (FIG. 18): 0.64
[3]; 10 mg/kg/day, end of study
  change in lean body mass, in words (FIG. 6): less change in lean body mass than those receiving a placebo
[3]; [6]
  change in fat mass per survival day after ALS onset, in words (FIG. 13): less change in fat mass than those receiving S-pindolol
  change in lean body mass per survival day after ALS onset, in words (FIG. 7): less change in lean body mass than those receiving S-pindolol
  change of body weight per survival day after ALS onset, in words (FIG. 5): body weight loss that was close to those administered S-pindolol; also recorded: less body weight loss than those in the placebo group
[3]; 10 mg/kg/day, p=0.18
  Wasting of lean mass reduced compared to placebo (FIG. 6): about 40%
[3]; all mice, 10 mg/kg/d
  Δ body weight: -5.4 ± 0.43 g
  Δ fat mass: -1.26 ± 0.14 g
  Δ lean mass: -3.31 ± 0.33 g
  Average Δ body weight: -123 ± 11.6 mg/day
  Average Δ fat mass: -29.4 ± 3.7 mg/day
  Average Δ lean mass: -89.6 ± 9.1 mg/day
[3]; all mice, 20 mg/kg/d
  Δ body weight: -5.56 ± 0.47 g
  Δ fat mass: -1.56 ± 0.18 g
  Δ lean mass: -4.78 ± 0.41 g
  Average Δ body weight: −99.4 ± 9.7^p=0.064 mg/day
  Average Δ fat mass: -29.8 ± 3.6 mg/day
  Average Δ lean mass: -93.3 ± 7.5 mg/day
[3]; end of study, p>0.5
  change in fat mass, in words (FIG. 12): no effect on the loss of fat mass
[3]; female mice, 10 mg/kg/d
  Δ body weight: -4.51 ± 0.55 g
  Δ fat mass: −1.17 ± 0.21^p=0.059 g
  Δ lean mass: -3.99 ± 0.37 g
  Average Δ body weight: -103.3 ± 16.1 mg/day
  Average Δ fat mass: -25.9 ± 4.8 mg/day
  Average Δ lean mass: -69.2 ± 10.8 mg/day
[3]; female mice, 20 mg/kg/d
  Δ body weight: -4.57 ± 0.55 g
  Δ fat mass: -1.29 ± 0.17 g
  Δ lean mass: -3.97 ± 0.49 g
  Average Δ body weight: -82.0 ± 13.6 mg/day
  Average Δ fat mass: −26.8 ± 4.4^+ mg/day
  Average Δ lean mass: 90.7 ± 10.9 mg/day
[3]; male mice, 10 mg/kg/d
  Δ body weight: -6.57 ± 0.57 g
  Δ fat mass: -1.44 ± 0.19 g
  Δ lean mass: -3.67 ± 0.49 g
  Average Δ body weight: -150.3 ± 14.5 mg/day
  Average Δ fat mass: -33.6 ± 5.7 mg/day
  Average Δ lean mass: -115.1 ± 13.9 mg/day
[3]; male mice, 20 mg/kg/d
  Δ body weight: -6.36 ± 0.67 g
  Δ fat mass: -1.78 ± 0.28 g
  Δ lean mass: -5.34 ± 0.56 g
  Average Δ body weight: -115.7 ± 12.6 mg/day
  Average Δ fat mass: -32.1 ± 5.4 mg/day
  Average Δ lean mass: -95.8 ± 10.6 mg/day
[4]; 10 mg/kg/day
  gastrocnemius weight over days after onset, in words (FIG. 9): steady
  tibialis anterior muscle weight over days after onset, in words (FIG. 11): steady
[4]; 10 mg/kg/day, p=0.72, placebo R: −0.67
  correlation R of tibialis anterior muscle weight with days after onset (=survival), FIG. 11: 0.15
[4]; 10 mg/kg/day, p=0.94, placebo R: −0.56
  correlation R of gastrocnemius weight with days after onset (=survival), FIG. 9: −0.03
[4]; all mice, 10 mg/kg/d
  BAT (brown adipose tissue): 46.8 ± 3.5 mg
  EDL (extensor digitorum longus): 7.18 ± 0.34 mg
  soleus: 5.89 ± 0.35 mg
  Heart: 108.6 ± 5.8 mg
  gastrocnemius: 55.1 ± 4.0 mg
[4]; all mice, 20 mg/kg/d
  BAT (brown adipose tissue): 43.7 ± 2.3 mg
  EDL (extensor digitorum longus): 7.791 ± 0.29*^+++ mg
  soleus: 6.42 ± 0.39 mg
  Heart: 104.1 ± 3.5 mg
  gastrocnemius: 50.1 ± 2.9 mg
[4]; female mice, 10 mg/kg/d
  BAT (brown adipose tissue): 39.4 ± 4.2 mg
  EDL (extensor digitorum longus): 7.03 ± 0.51 mg
  soleus: 5.71 ± 0.48 mg
  Heart: 92.3 ± 3.2^p=0.064 mg
  gastrocnemius: 50.5 ± 4.0*^p=0.060 ^vs propanolol mg
[4]; female mice, 20 mg/kg/d
  BAT (brown adipose tissue): 37.1 ± 2.9 mg
  EDL (extensor digitorum longus): 7.29 ± 0.42*^$ mg
  soleus: 6.15 ± 0.30 mg
  Heart: 92.8 ± 3.0 mg
  gastrocnemius: 46.2 ± 3.9 mg
[4]; male mice, 10 mg/kg/d
  BAT (brown adipose tissue): 53.2 ± 5.0 mg
  EDL (extensor digitorum longus): 7.28 ± 0.47 mg
  soleus: 6.04 ± 0.53 mg
  Heart: 122.6 ± 8.8 mg
  gastrocnemius: 59.1 ± 6.6 mg
[4]; male mice, 20 mg/kg/d
  BAT (brown adipose tissue): 46.5 ± 3.0 mg
  EDL (extensor digitorum longus): 8.15 ± 0.39^$$$ mg
  soleus: 6.58 ± 0.61 mg
  Heart: 112.4 ± 4.5 mg
  gastrocnemius: 53.1 ± 4.3 mg
